The record followed here is ChEMBL document CHEMBL4613212, “Insights of synthetic analogues of anti-leprosy agents” (Bioorg Med Chem, 2019).

Converted amounts (≈) assume the structure as drawn.

The test system of data set [1] is Mycolicibacterium smegmatis. Description: Antimicrobial activity against Mycobacterium smegmatis incubated for 24 hrs by broth microdilution assay. It counts as functional.
The next data set deals with Mycolicibacterium aurum. Description: Antimicrobial activity against Mycobacterium aurum incubated for 24 hrs by broth microdilution assay. It counts as functional.
Another data set has as its system Mycolicibacterium vaccae. Description: Antimicrobial activity against Mycobacterium vaccae incubated for 24 hrs by broth microdilution assay. It counts as functional.
Data set [2] has as its system Mycolicibacterium fortuitum. Description: Antimicrobial activity against Mycobacterium fortuitum incubated for 24 hrs by broth microdilution assay. Format: functional.
Data set [3] concerns Mycobacterium leprae. Description: Antimicrobial activity against Mycobacterium leprae assessed as microbial growth at 1.5 ug/ml in presence of 0.1 ug/ml rifampin measured at 4 weeks (reference value: 147 +/- 19.1%). It counts as functional.
Data set [4] relates to Mycobacterium leprae. Description: Antimicrobial activity against Mycobacterium leprae assessed as microbial growth at 1.5 ug/ml in presence of 0.2 ug/ml rifampin measured at 4 weeks (reference value: 147 +/- 19.1%). It counts as functional.
The subject of data set [5] is Mycobacterium leprae. Description: Antimicrobial activity against Mycobacterium leprae assessed as microbial growth at 1.5 ug/ml in presence of 0.05 ug/ml rifabutin measured at 4 weeks (reference value: 147 +/- 19.1%). It counts as functional.
Data set [6] has as its system Mycobacterium leprae. Description: Antimicrobial activity against Mycobacterium leprae assessed as microbial growth at 1.5 ug/ml in presence of 0.1 ug/ml rifabutin measured at 4 weeks (reference value: 147 +/- 19.1%). It counts as functional.
Data set [7] relates to Mycobacterium leprae. Description: Antimicrobial activity against Mycobacterium leprae assessed as microbial growth at 1.5 ug/ml in presence of 0.0125 ug/ml KRM-1648 measured at 4 weeks (reference value: 147 +/- 19.1%). Format: functional.
Data set [8] relates to Mycobacterium leprae. Description: Antimicrobial activity against Mycobacterium leprae assessed as microbial growth at 1.5 ug/ml in presence of 0.025 ug/ml KRM-1648 measured at 4 weeks (reference value: 147 +/- 19.1%). Format: functional.
Data set [9] concerns Mycobacterium leprae. Description: Antimicrobial activity against Mycobacterium leprae assessed as fractional inhibitory concentration index at 1.5 ug/ml in presence of 0.2 ug/ml rifampin measured at 4 weeks. Format: functional.
Data set [10] has as its system Mycobacterium leprae. Description: Antimicrobial activity against Mycobacterium leprae assessed as fractional inhibitory concentration index at 1.5 ug/ml in presence of 0.1 ug/ml rifabutin measured at 4 weeks. Format: functional.
The test system of data set [11] is Mycobacterium leprae. Description: Antimicrobial activity against Mycobacterium leprae assessed as fractional inhibitory concentration index at 1.5 ug/ml in presence of 0.025 ug/ml KRM-1648 measured at 4 weeks. Format: functional.
In data set [12] the test system is Mycobacterium tuberculosis. Description: Antimycobacterial activity against Mycobacterium tuberculosis H37Rv by BACTEC radiometric growth assay. Format: functional.
Data set [13] has as its system Mycobacterium leprae. Description: Anti-leprotic activity against Mycobacterium leprae infected in BALB/c weanling mouse assessed as bacteria killing at 150 mg/kg, ip administrated for 60 days and measured after 1 year by most probable number technique analysis relative to control. Format: functional.
The test system of data set [14] is Mycobacterium leprae. Description: Anti-leprotic activity against Mycobacterium leprae infected in BALB/c weanling mouse assessed as bacteria killing at 150 mg/kg, ip administrated cotreated with 0.0001% dietary dapsone for 60 days and measured after 1 year by most probable number technique analysis relative to control. Format: functional.
For data set [15], the system named is Mycobacterium leprae. Description: Anti-leprotic activity against Mycobacterium leprae infected in BALB/c weanling mouse assessed as bacteria killing at 150 mg/kg, ip administrated for 60 days and measured after 1 year by Spearman-Karber technique analysis relative to control. It counts as functional.
The test system of data set [16] is Mycobacterium leprae. Description: Anti-leprotic activity against Mycobacterium leprae infected in BALB/c weanling mouse assessed as bacteria killing at 150 mg/kg, ip administrated cotreated with 0.0001% dietary dapsone for 60 days and measured after 1 year by Spearman-Karber technique analysis relative to control. It counts as functional.
Data set [17] relates to Mycobacterium leprae. Description: Antimicrobial activity against Mycobacterium leprae assessed as microbial growth at 0.375 ug/ml in presence of 0.1 ug/ml rifampin measured at 4 weeks (reference value: 147 +/- 19.1%). Format: functional.
The test system of data set [18] is Mycobacterium leprae. Description: Antimicrobial activity against Mycobacterium leprae assessed as microbial growth at 0.375 ug/ml in presence of 0.2 ug/ml rifampin measured at 4 weeks (reference value: 147 +/- 19.1%). Format: functional.
Data set [19] relates to Mycobacterium leprae. Description: Antimicrobial activity against Mycobacterium leprae assessed as microbial growth at 0.1875 ug/ml in presence of 0.025 ug/ml rifabutin measured at 4 weeks (reference value: 147 +/- 19.1%). It counts as functional.
Data set [20] concerns Mycobacterium leprae. Description: Antimicrobial activity against Mycobacterium leprae assessed as microbial growth at 0.1875 ug/ml in presence of 0.05 ug/ml rifabutin measured at 4 weeks (reference value: 147 +/- 19.1%). It counts as functional.
In data set [21] the test system is Mycobacterium leprae. Description: Antimicrobial activity against Mycobacterium leprae assessed as microbial growth at 0.1875 ug/ml in presence of 0.0062 ug/ml KRM-1648 measured at 4 weeks (reference value: 147 +/- 19.1%). Format: functional.
The test system of data set [22] is Mycobacterium leprae. Description: Antimicrobial activity against Mycobacterium leprae assessed as microbial growth at 0.1875 ug/ml in presence of 0.0125 ug/ml KRM-1648 measured at 4 weeks (reference value: 147 +/- 19.1%). Format: functional.
The subject of data set [23] is Mycobacterium leprae. Description: Antimicrobial activity against Mycobacterium leprae assessed as fractional inhibitory concentration index at 0.375 ug/ml in presence of 0.2 ug/ml rifampin measured at 4 weeks. Format: functional.
The test system of data set [24] is Mycobacterium leprae. Description: Antimicrobial activity against Mycobacterium leprae assessed as fractional inhibitory concentration index at 0.1875 ug/ml in presence of 0.05 ug/ml rifabutin measured at 4 weeks. It counts as functional.
In data set [25] the test system is Mycobacterium leprae. Description: Antimicrobial activity against Mycobacterium leprae assessed as fractional inhibitory concentration index at 0.1875 ug/ml in presence of 0.0125 ug/ml KRM-1648 measured at 4 weeks. Format: functional.
In data set [26] the test system is Mycolicibacterium smegmatis. Description: Antimycobacterial activity against DDS sensitive Mycobacterium smegmatis ATCC 607 […]. It counts as functional.
Data set [27] has as its system Mycolicibacterium smegmatis. Description: Antimycobacterial activity against DDS resistant Mycobacterium smegmatis ATCC 607 […]. Format: functional.
The test system of data set [28] is Mycobacterium leprae. Description: Anti-leprotic activity against Mycobacterium leprae infected in BALB/c mouse assessed as time delay in bacterial multiplication in footpad at 0.003 g/100g of diet administered via feed starting 60 or 75 day post infection up to 90 days by Shepard's kinetic method. Format: functional.
Data set [29] concerns Mycobacterium tuberculosis. Description: Antitubercular activity against Mycobacterium tuberculosis H37Rv ATCC 27294 assessed as growth inhibition at 6.25 ug/ml by microplate alamar blue assay relative to control. It counts as functional.
Data set [30] can be described thus: Selectivity index, ratio of IC50 for African green monkey Vero cells to MIC for antitubercular activity against Mycobacterium tuberculosis H37Rv. It counts as toxicity. Conditions: Vero cells, read-out: Selectivity Index.
The subject of data set [31] is Mycobacterium tuberculosis. Description: Antitubercular activity against Mycobacterium tuberculosis H37Rv ATCC 27294 infected in bone marrow macrophages assessed as reduction in growth after 7 days. It counts as functional. Conditions: H37Rv ATCC 27294, 168 h.
Data set [32] concerns Mycobacterium tuberculosis. Description: Antitubercular activity against Mycobacterium tuberculosis H37Rv ATCC 27294 assessed as inhibition of [3H]-thymidine incorporation relative to control. Format: functional.

As to `O=C(O)c1cn(C2CC2)c2cc(N3CCNCC3)c(F)cc2c1=O` [CIPROFLOXACIN], the minimum inhibitory concentration (MIC) in data set [1] was 0.8 µg/mL (≈ 2.41 µM); in the data set on Mycolicibacterium aurum, less than 0.05 µg/mL; against Mycolicibacterium vaccae, 0.4 µg/mL (≈ 1.21 µM); in data set [2], 0.05 µg/mL (≈ 0.151 µM). The Activity in the data set on Mycobacterium leprae [3] was 28%; with Mycobacterium leprae [4] it was 0%; with Mycobacterium leprae [5] it was 21%; in the data set on Mycobacterium leprae [6] it was 0%; in the data set with Mycobacterium leprae [7], 19%; in the data set with Mycobacterium leprae [8], 0%. Also, the “fractional inhibitory concentration index (FICI)” value in the data set on Mycobacterium leprae [9], in the data set on Mycobacterium leprae [10] and with Mycobacterium leprae [11] was 1 in each case.
For `CN[C@@H]1[C@H](O[C@H]2[C@H](O[C@H]3[C@H](O)[C@@H](O)[C@H](N=C(N)N)[C@@H](O)[C@@H]3N=C(N)N)O[C@@H](C)[C@]2(O)C=O)O[C@@H](CO)[C@H](O)[C@H]1O` [STREPTOMYCIN], the lowest concentration to inhibit growth in [12] (MIC) was 2 µg/mL (≈ 3.44 µM). For the same molecule, the Activity is 97.2% in the data set on Mycobacterium leprae [13], 95.7% in the data set with Mycobacterium leprae [14], 97% with Mycobacterium leprae [15] and 95% in the data set with Mycobacterium leprae [16].
Consider `C[C@H]1COc2c(N3CCN(C)CC3)c(F)cc3c(=O)c(C(=O)O)cn1c23.C[C@H]1COc2c(N3CCN(C)CC3)c(F)cc3c(=O)c(C(=O)O)cn1c23.O` [LEVOFLOXACIN], for which the Activity is 87% with Mycobacterium leprae [17]; 0% in the data set with Mycobacterium leprae [18]; 133% in the data set with Mycobacterium leprae [19]; 0% in the data set with Mycobacterium leprae [20]; 115% in the data set with Mycobacterium leprae [21]; 0% with Mycobacterium leprae [22]. For the same molecule, the “fractional inhibitory concentration index (FICI)” value in the data set on Mycobacterium leprae [23] was 1; with Mycobacterium leprae [24], 0.5; with Mycobacterium leprae [25], 0.5.
Take `Nc1ccc(S(=O)(=O)c2cccc(N)c2)cc1`: the MIC came to 24.2 µg/mL (≈ 97.5 µM) in [26] and 1300 µg/mL (≈ 5240 µM) in data set [27]. For the same molecule, the Time in the data set with Mycobacterium leprae [28] came out at 133 days.
For the molecule `Clc1nc(-c2ccco2)c2ncn(Cc3ccccc3)c2n1`, the inhibition at 6.25 µg/mL in data set [29] is more than 90%. Also, in data set [30], the selectivity ratio turned out to be 10.6. In addition, the EC99 in [31] is 8 µg/mL. For the same molecule, the “inhibition (INH)” value in data set [32] was found to be 27%.
